In patent US20260335282A1, “NOVEL 3-ARYLIDENE-2-INDOLINONE DERIVATIVES FOR THERAPEUTIC USE” (ISTANBUL UNIVERSITESI REKTORLUGU, priority 2022, published 2026):
Read-outs that look alike come from different tables or passages of the source.

How the values were obtained:
Type in all cases: cell-based, human
[1] = tested on: A498 cells; test: MTT cytotoxicity, kidney cancer cells A498; conditions: MTT
Excerpt: (§1) The cytotoxicity, general tyrosine kinase inhibitory effects and cell death (apoptosis/necrosis) assays of 1-benzyl-3-(1H-indol-3-ylmethylidene)-1,3-dihydro-2H-indol-2-one derivatives (Formula 5) of the present invention are studied by the following methods. […] HUVEC (human umbilical vein endothelial cell), MCF-10F (human breast epithelial cell) and Beas2b (human lung bronchial epithelial cell) cell lines have been used as healthy control cells in MTT experiments.
(§2) Beas2b (human lung bronchiole epithelial cell) and HEK293 (renal tubule epithelium) cells used as normal cell lines were cultured in RPMI medium, and HUVEC (human umbilical cord endothelial cells) and MCF-10F (human breast epithelial cell) cells are cultured in DMEM medium containing 100 µg/ml penicillin/streptomycin. The cells, which covered 70% of the culture flask, are washed with phosphate buffer and then removed from the surface of the flask by application of trypsin-ethylenediamine tetraacetic acid (Trypsin-EDTA; 0.25%) solution, passaged, counted and seeded on appropriate plates before each experiment. Cells are treated with a total of 45 2-indolinone compounds (5) at concentrations of 0.1, 1, 5 and 10 μM. Stock compounds are prepared in 1 ml dimethylsulfoxide (DMSO) and 4 different dilutions were prepared with medium and performed to the cells. Control group cells are treated with DMSO at a similar concentration to the experimental groups.
(§3) MTT (3-(4,5-dimethylthiazol-2-yl)-2,5-diphenyl-2H-tetrazolium bromide) colorimetric assay provides quantitation of viable cells with ongoing mitochondrial activity in culture medium. According to the standard procedure in cell culture conditions, cells are maintained in RPMI-1640 and DMEM culture media containing 10% FBS and 1% penicillin/streptomycin. The trypan blue test is used for cell counts.
(§4) The effects of 45 2-indolinone compounds (5) on cell viability in all cancer cell lines are investigated by MTT assay. Cells are seeded in a 96-well flat bottom plate with 5000 cells in each well and 2-indolinone compounds (5) at concentrations of 0.1, 1, 5 and 10 μM are performed to the cells the next day. After 48 and/or 72 hours following treatment with 2-indolinone compounds, 50 μl of the supernatant is slowly discarded (as it was acid medium) and MTT at a concentration of 5 mg/ml is added to each well in a volume of 10 μl. After incubation for 4 hours, the formazan crystals formed in the wells are dissolved by adding 100 μl DMSO and the optical density is read at 570 nm test wavelength and 630 nm reference wavelength. Cell viability is expressed as % cell viability by comparing the absorbance of control and test wells. IC50 value is calculated from the dose-response curves prepared for each compound. In addition, the possible DMSO effect is eliminated by preparing negative control wells compatible with the amount of DMSO contained in the compounds. To understand the reaction of the compounds with MTT, cell-free (MTT+compounds) negative controls are prepared at the concentrations used (Mosmann, 1983). […] The absorbance values obtained are compared to the control and statistically evaluated by unpaired t-test using “Graphpad Prism 5.04” software. “P<0.05” is accepted as significant. When evaluating cytotoxic effects, the present inventors aim for the inventive compounds to be effective in cancer cells and ineffective in healthy cells. The inventive compounds have also been compared with sunitinib, one of the reference chemotherapy drugs currently used in treatment.
(§5) Among the compounds of the present invention, those that killed cancer cells by at least 50% (p<0.05) are selected and tested whether a 10-fold concentration of the M concentration at the IC50 value is toxic to normal healthy cells.

[2] = tested on: MCF-10F/Beas2b cells; test: MTT cytotoxicity, healthy cells MCF-10F/Beas2b; conditions: for IC50: MTT; for Selectivite Index, MCF-10F/Beas2b (Table 2): MCF-10F/Beas2b vs colon or pancreas cancer cells
Excerpt: as §1, §2, §3, §4, §5

[3] = tested on: MIAPaCa-2 cells; test: MTT cytotoxicity, pancreas cancer cells MIAPaCa-2; conditions: MTT
Excerpt: as §1, §2, §3, §4

[4] = tested on: HCT-116 cells; test: MTT cytotoxicity, colon cancer cells HCT-116; conditions: no * mark (incubation time not specified)
Excerpt: as §1, §2, §3, §4

[5] = tested on: A549 cells; test: MTT cytotoxicity, lung cancer cells A549; conditions: no * mark (incubation time not specified)
Excerpt: as §1, §2, §3, §4, §5

[6] = tested on: HUVEC cells; test: MTT cytotoxicity, healthy cells HUVEC; conditions: for IC50: MTT; for Selectivite Index, HUVEC (Table 2): HUVEC vs colon or pancreas cancer cells
Excerpt: as §1, §2, §3, §4, §5

[7] = tested on: MCF-7 cells; test: MTT cytotoxicity, breast cancer cells MCF-7; conditions: MTT
Excerpt: as §1, §2, §3, §4, §5

[8] = tested on: HT-29 cells; test: MTT cytotoxicity, colon cancer cells HT-29; conditions: MTT, no * mark (incubation time not specified)
Excerpt: as §1, §2, §3, §4

[9] = tested on: CAKI-1 cells; test: MTT cytotoxicity, kidney cancer cells CAKI-1
Excerpt: as §1, §2, §3, §4, §5

[10] = tested on: MDA-MB-231 cells; test: MTT cytotoxicity, breast cancer cells MDA-MB-231; conditions: read-out: IC50, MDA-MB-231 (breast), MTT
Excerpt: as §1, §2, §3, §4, §5

[11] = no * mark (incubation time not specified)
[12] = no * mark (incubation time not given)
[13] = *: effective 72 hours after incubation

Row | SMILES | IC50 [1, 11] | IC50 [2, 11] | IC50 [3, 11] | IC50 [4] | IC50 [5] | IC50 [6, 11] | IC50 [7, 11] | IC50 [8] | IC50 [9, 11] | IC50 [10, 12] | IC50 [3, 13] | IC50 [9, 13] | further results
1 | Cc1cccc(CN2C(=O)C(=Cc3c[nH]c4ccccc34)c3cccc(F)c32)c1 [34C] | 3.64 µM | 4.1 µM | > 10 µM | 0.64 µM | 4.7 µM | 1.69 µM | > 10 µM | > 10 µM | 7.61 µM | > 10 µM |  |  | 
2 | O=C1C(=Cc2c[nH]c3ccccc23)c2cc(Cl)ccc2N1Cc1cccc(Cl)c1 [18C] | 1.75 µM | 1.07 µM |  | 3.94 µM | 6.57 µM | 1.07 µM | 5.53 µM | 3.12 µM | 3.46 µM | 7.99 µM | 1.54 µM |  | 
3 | Cc1ccc2c(c1)/C(=C/c1cn(C)c3ccccc13)C(=O)N2Cc1ccccc1 [Y13] | > 10 µM |  | 2.2 µM | 4.58 µM | > 10 µM | 3.37 µM | > 10 µM | 3.37 µM | > 10 µM | > 10 µM |  |  | 
4 | O=C1/C(=C\c2c[nH]c3ccccc23)c2cccc(Cl)c2N1Cc1cccc(Cl)c1 [25C] | 2.91 µM | 1.81 µM |  | 2.9 µM | > 10 µM | 1.81 µM | 4.5 µM | > 10 µM |  | > 10 µM | 3.23 µM | 8.07 µM | 
5 | Cc1ccc(CN2C(=O)/C(=C\c3c[nH]c4ccccc34)c3cccc(F)c32)cc1 [35C] |  | 3.23 µM | 0.62 µM | 0.23 µM | 5.93 µM | 1.62 µM | > 10 µM | 1.01 µM | 4.5 µM | > 10 µM |  |  | IC50 [1, 13]: 3.09 µM
6 | O=C1/C(=C\c2c[nH]c3ccccc23)c2cc(F)ccc2N1Cc1cccc(Cl)c1 [11C] | > 10 µM |  |  | > 10 µM | > 10 µM | > 10 µM | > 10 µM | > 10 µM | 9.81 µM | 7.25 µM | > 10 µM |  | 
7 | O=C1/C(=C\c2c[nH]c3ccccc23)c2cccc(Cl)c2N1Cc1cccc(F)c1 [23C] | 8.33 µM |  |  | > 10 µM | > 10 µM | > 10 µM | 3.07 µM | > 10 µM | 4.88 µM | > 10 µM | > 10 µM |  | 
8 | Cc1cccc(CN2C(=O)/C(=C\c3c[nH]c4ccccc34)c3cc(OC(F)(F)F)ccc32)c1 [6C] | > 10 µM |  |  | > 10 µM | > 10 µM | > 10 µM | 4.72 µM | > 10 µM | 9.66 µM | 9.87 µM | > 10 µM |  | 
9 | O=C1/C(=C\c2c[nH]c3ccccc23)c2cc(Cl)cc(Cl)c2N1Cc1ccccc1 [36C] |  |  | 0.46 µM | 2.51 µM | 2.35 µM | 2.24 µM | > 10 µM | > 10 µM |  | > 10 µM |  | 4.01 µM | IC50 [1, 13]: 1.46 µM; Selectivite Index, MCF-10F/Beas2b (Table 2) ([2]; cancer line not given): 7.83; IC50 [2, 13]: 3.6 µM; Selectivite Index, HUVEC (Table 2) ([6]; cancer line not given): 4.87
10 | O=C1/C(=C\c2c[nH]c3ccccc23)c2cccc(F)c2N1Cc1ccccc1 [29C] | > 10 µM |  | > 10 µM | > 10 µM | > 10 µM |  | 4.35 µM | > 10 µM | 4.12 µM | > 10 µM |  |  | IC50 [6, 13]: 0.95 µM
11 | Cc1ccc(CN2C(=O)/C(=C\c3c[nH]c4ccccc34)c3cccc(Cl)c32)cc1 [28C] |  |  | > 10 µM | > 10 µM | > 10 µM | > 10 µM | > 10 µM | > 10 µM |  | > 10 µM |  | 7.66 µM | IC50 [1, 13]: 0.6 µM; Selectivite Index (SI), MCF-10F/Beas2b (Table 1) ([2]; MCF-10F/Beas2b vs breast or kidney cancer cells, cancer line not given): 1.5; IC50 [2, 13]: 1.78 µM; Selectivite Index (SI), HUVEC (Table 1) ([6]; HUVEC vs breast or kidney cancer cells, cancer line not given): > 15.6
12 | Cc1cccc(CN2C(=O)/C(=C\c3c[nH]c4ccccc34)c3ccccc32)c1 [50C] |  | 4.37 µM | 2.96 µM | 0.5 µM | 4.6 µM | 0.86 µM |  | 1.49 µM | 4.96 µM | 4.3 µM |  |  | IC50 [1, 13]: 3.85 µM; Selectivite Index, MCF-10F/Beas2b (Table 2) ([2]; cancer line not given): 8.74; Selectivite Index, HUVEC (Table 2) ([6]; cancer line not given): 1.72; IC50 [7, 13]: 4.15 µM
13 | O=C1/C(=C\c2c[nH]c3ccccc23)c2cc(OC(F)(F)F)ccc2N1Cc1cccc(Cl)c1 [4C] | 3.05 µM | 1.73 µM |  | 1.13 µM | 2.42 µM | 0.97 µM |  | > 10 µM |  |  | 3.67 µM | 2.79 µM | IC50 [7, 13]: 3.06 µM; IC50 [10, 13]: 3.07 µM
14 | Cc1ccc(CN2C(=O)/C(=C\c3c[nH]c4ccccc34)c3cc(F)ccc32)cc1 [Y25] | 3.15 µM | 2.72 µM | 1.14 µM | 1.46 µM | 3.31 µM | 0.13 µM |  | > 10 µM |  | 3.4 µM |  | 7 µM | IC50 [7, 13]: 4.83 µM
15 | O=C1/C(=C\c2c[nH]c3ccccc23)c2cccc(Cl)c2N1Cc1ccc(Cl)cc1 [26C] | 6.92 µM |  |  | > 10 µM | > 10 µM | > 10 µM | 3.55 µM | > 10 µM | 4.5 µM | > 10 µM | > 10 µM |  | 
16 | O=C1/C(=C\c2c[nH]c3ccccc23)c2cc(OC(F)(F)F)ccc2N1Cc1cccc(F)c1 [2C] | 4.78 µM | 3.07 µM |  | 2.88 µM | 3.58 µM | 2.56 µM | 8.82 µM | > 10 µM |  | 2.91 µM | 7.35 µM | 5.46 µM | 
17 | Cc1ccc(CN2C(=O)/C(=C\c3c[nH]c4ccccc34)c3cc(Cl)ccc32)cc1 [Y22] | > 10 µM | 1.1 µM | 0.49 µM | 2.34 µM | > 10 µM | 2.34 µM | > 10 µM | > 10 µM | > 10 µM | > 10 µM |  |  | 
18 | O=C1/C(=C\c2c[nH]c3ccccc23)c2cccc(Cl)c2N1Cc1ccc(F)cc1 [24C] | 2.6 µM | 1.26 µM | 1.12 µM | 2.35 µM | 8.08 µM | 1.26 µM | 5.08 µM | 0.73 µM |  | 7.41 µM |  | 5.72 µM | 
19 | O=C1/C(=C\c2c[nH]c3ccccc23)c2cc(F)ccc2N1Cc1ccc(F)cc1 [10C] | 3.81 µM | 2.99 µM | 2.77 µM | 3.96 µM | 3.49 µM | 4.65 µM | > 10 µM | 2.29 µM |  |  |  | 6.69 µM | IC50 [10, 13]: 8.13 µM
20 | Cn1cc(/C=C2\C(=O)N(Cc3ccccc3)c3ccccc32)c2ccccc21 [Y12] | > 10 µM |  | > 10 µM | 1.46 µM | > 10 µM | > 10 µM | > 10 µM | > 10 µM | > 10 µM | > 10 µM |  |  | 
